Experimental data as given in ChEMBL document CHEMBL1124760, “Antirhinovirus activity of 6-anilino-9-benzyl-2-chloro-9H-purines” (J Med Chem, 1990).

Key:
Format in all cases: functional, organism-based
[1] = system: rhinovirus B5; test: Evaluated for inhibitory activity against rhinovirus type 5; conditions: Rhinovirus B
[2] = system: rhinovirus B4; test: Evaluated for inhibitory activity against rhinovirus type 4; conditions: Rhinovirus B
[3] = system: rhinovirus A2; test: Evaluated for inhibitory activity against rhinovirus type 2; conditions: Rhinovirus A
[4] = system: rhinovirus A1B; test: Inhibitory activity against rhinovirus type 1B; conditions: Rhinovirus A

| IC50 [1] | IC50 [2] | IC50 [3] | IC50 [4] | SMILES |
| --- | --- | --- | --- | --- |
| 9.5 µM | 7.8 µM | 2.2 µM | 300 nM | Clc1nc(Nc2ccc(Br)cc2)c2ncn(Cc3ccccc3)c2n1 |
| > 8 µM | 5.1 µM | 2.7 µM | 1900 nM | Cc1ccc(Cn2cnc3c(N(C)c4ccccc4)nc(C(F)(F)F)nc32)cc1 |
| – | – | – | > 40000 nM | CCCCOc1ccc(Nc2nc(Cl)nc3c2ncn3Cc2ccccc2)cc1 |
| – | 8.3 µM | 3.6 µM | 2000 nM | CC(C)Oc1cccc(Nc2nc(Cl)nc3c2ncn3Cc2ccccc2)c1 |
| – | – | – | > 40000 nM | CN(C)c1ccc(Nc2nc(Cl)nc3c2ncn3Cc2ccccc2)cc1 |
| – | – | – | > 40000 nM | CC(C)Oc1ccc(Nc2nc(Cl)nc3c2ncn3Cc2ccccc2)cc1 |
| – | – | – | > 10000 nM | CCOC(=O)c1ccc(Nc2nc(Cl)nc3c2ncn3Cc2ccccc2)cc1 |
| 7.6 µM | 5.7 µM | 2.8 µM | 2900 nM | Clc1nc(Nc2cccc(Br)c2)c2ncn(Cc3ccccc3)c2n1 |
| – | – | – | 30 nM | Cc1ccc(Cn2cnc3c(N(C)C)nc(C(F)(F)F)nc32)cc1 |
| 8.5 µM | 8.4 µM | 3.1 µM | 2400 nM | CN(C)c1cccc(Nc2nc(Cl)nc3c2ncn3Cc2ccccc2)c1 |
| – | – | – | 9400 nM | N#Cc1ccc(Nc2nc(Cl)nc3c2ncn3Cc2ccccc2)cc1 |
| – | – | – | > 40000 nM | CS(=O)(=O)c1cccc(Nc2nc(Cl)nc3c2ncn3Cc2ccccc2)c1 |
| – | – | – | > 10000 nM | O=[N+]([O-])c1cccc(Nc2nc(Cl)nc3c2ncn3Cc2ccccc2)c1 |
| – | – | – | > 20000 nM | Nc1ccc(Nc2nc(Cl)nc3c2ncn3Cc2ccccc2)cc1 |
| – | 8.7 µM | 11 µM | 140 nM | CSc1ccc(Nc2nc(Cl)nc3c2ncn3Cc2ccccc2)cc1 |
| 16.3 µM | 14.2 µM | 8.3 µM | 1650 nM | Clc1nc(Nc2ccccc2)c2ncn(Cc3ccccc3)c2n1 |
| – | – | – | 1300 nM | CC(=O)Nc1cccc(Nc2nc(Cl)nc3c2ncn3Cc2ccccc2)c1 |
| – | – | – | > 10000 nM | Nc1cccc(Nc2nc(Cl)nc3c2ncn3Cc2ccccc2)c1 |
| – | – | 1.2 µM | 300 nM | Cc1ccc(Nc2nc(Cl)nc3c2ncn3Cc2ccccc2)cc1 |
| – | – | – | > 10000 nM | CCCCc1ccc(Nc2nc(Cl)nc3c2ncn3Cc2ccccc2)cc1 |
| – | – | – | 22000 nM | CCCCOc1cccc(Nc2nc(Cl)nc3c2ncn3Cc2ccccc2)c1 |
| – | – | – | > 20000 nM | CC(=O)Nc1ccc(Nc2nc(Cl)nc3c2ncn3Cc2ccccc2)cc1 |
| 5.6 µM | 5.5 µM | 5.6 µM | 1200 nM | Fc1cccc(Nc2nc(Cl)nc3c2ncn3Cc2ccccc2)c1 |
| > 8 µM | 6.4 µM | 3.9 µM | 1000 nM | Cc1ccc(Cn2cnc3c(Nc4ccccc4)nc(Cl)nc32)cc1 |
| – | – | – | > 10000 nM | CCOC(=O)c1cccc(Nc2nc(Cl)nc3c2ncn3Cc2ccccc2)c1 |
| 200 µM | 85 µM | 16.6 µM | 300 nM | FC(F)(F)c1ccc(Nc2nc(Cl)nc3c2ncn3Cc2ccccc2)cc1 |
| – | 4.5 µM | 10.5 µM | 2000 nM | CS(=O)(=O)c1ccc(Nc2nc(Cl)nc3c2ncn3Cc2ccccc2)cc1 |
| 10 µM | 6.8 µM | 6.2 µM | 1280 nM | Fc1ccc(Nc2nc(Cl)nc3c2ncn3Cc2ccccc2)cc1 |
